Laboratory results reported in US20060073188A1, “Fast-dissolving isotropic expanded microporous composition or structure for pharmaceutical, veterinary, dietetic, food or cosmetic use and method for obtaining same” (PIERRE FABRE MEDICAMENT, priority 1999, published 2006).

Assay: physchem

| Structure (SMILES) | solubility |
| --- | --- |
| O=c1[nH]c2ccccc2n1CCCN1CCC(n2c(=O)[nH]c3cc(Cl)ccc32)CC1 [domperidone] | < 100 µg/mL |
| CN1C(C(=O)Nc2ccccn2)=C(O)c2ccccc2S1(=O)=O [piroxicam] | < 100 µg/mL |
